According to US20220387375A1, “TRPV1 ACTIVATION-MODULATING COMPLEX MIXTURES OF CANNABINOIDS AND/OR TERPENES” (GBS Global Biopharma, Inc., priority 2018, published 2022):

Legend:
Format in all cases: cell-based
TRPV1 = biological target: T1, TRPV1 (Rattus norvegicus, UniProt O35433); assay: Bulk calcium assay (Fluo-4) in HEK-TRPV1 overexpressing cells; settings: bulk calcium assay; TRPV1; mean (SD)
T1 construct: FLAG; expressed in transfected cells
Method: (§1) Cells were washed and incubated with 0.2 micromolar Fluo-4 for 30 minutes at 37° C. in a standard modified Ringer's solution of the following composition (in mM): NaCl 145, KCl 2.8, CsCl 10, CaCl2 10, MgCl2 2, glucose 10, Hepes·NaOH 10, pH 7.4, 330 mOsm. Cells were transferred to 96-well plates at 50,000 cells/well and stimulated as indicated. Calcium signals were acquired using a Flexstation 3 (Molecular Devices, Sunnydale, USA). Data was analyzed using SoftMax® Pro 5 (Molecular Devices). Where indicated, nomically calcium-free external conditions were achieved by the preparation of 0 mM CaCl2 Ringer solution containing 1 mM EGTA.
The cell culture system described in U.S. patent application Ser. No. 15/986,316 was used to test the TRPV1-mediated calcium response to various terpenes. The HEK293 cell line was stably transfected with the pcDNA6TR (Invitrogen, CA) plasmid (encoding the tetracycline-sensitive TREx repressor protein), and was maintained in DMEM+10% fetal bovine serum (inactivated at 55° C. for 1 h)+2 mM glutamine in humidified 5% CO2 atmosphere at 37° C. Selection pressure on the TRex 293 cells was maintained by continuous culture in 10 μg/ml Blasticidin (Sigma, St Louis, Mo.).
For production of TRex HEK293 cells with inducible expression of TRPV1, parental cells were electroporated with the rat TRPV1 cDNA in the pcDNA4TO vector and clonal cell lines were selected by limiting dilution in the presence of 400 μg/ml zeocin (Invitrogen, CA). TRPV1 expression was induced using 1 μg/ml tetracycline for 16 h at 37° C. Stable lines were screened for inducible protein expression using anti-FLAG Western blot, and inducible expression was confirmed.
Calcium responses mediated by TRPV1 were tested by calcium assay in the cell culture system. Cells were washed and incubated with 0.2 μM fluo-4 acetoxymethyl ester (“Fluo-4”) for 30 minutes at 37° C. in a standard modified Ringer's solution of the following composition (in mM): NaCl 145, KCl2.8, CsCl10, CaCl2 10, MgCl2 2, glucose 10, Hepes·NaOH 10, pH 7.4, 330 mOsm. Cells were transferred to 96-well plates at 50,000 cells/well and stimulated as indicated. The terpenes used were alpha-bisabool, alpha-pinene, myrcene, camphene, linalool, ocimene, humulene, beta-caryophyllene, beta-pinene, limonene, and nerolidol. The terpenes were diluted in DMSO and added to the wells to a final concentration of 10 μM. Vehicle (DMSO) alone was run as a negative control and subtracted from the terpene traces. Calcium signals were acquired using a Flexstation 3 (Molecular Devices, Sunnydale, USA). Data was analyzed using SoftMax® Pro 5 (Molecular Devices).
(§2) Calcium responses mediated by TRPA1, TRPM8, TRPV2, and TRPV1 were tested by calcium assay in the cell culture system. Cells were washed and incubated with 0.2 μM fluo-4 acetoxymethyl ester (“Fluo-4”) for 30 minutes at 37° C. in a standard modified Ringer's solution of the following composition (in mM): NaCl 145, KCl 2.8, CsCl 10, CaCl2 10, MgCl2 2, glucose 10, Hepes·NaOH 10, pH 7.4, 330 mOsm. Cells were transferred to 96-well plates at 50,000 cells/well and stimulated with 10 μM myrcene diluted in DMSO. Vehicle (DMSO) was used as a negative control. Vehicle traces were subtracted from the myrcene traces for each cell line.
As shown in FIGS. 16A-H, a variety of cannabinoids were capable of initiating Ca^2+ fluxes in HEK-TRPV1 overexpressing cells, except for cannabigerol and cannabinol. Comparative responses to a single dose (10 μM concentration) of a variety of cannabinoids were made in the presence of 1 mM external Ca^2+, which are population-based, or bulk Ca^2+, measurements with each trace representing averaged triplicates of 100,000 cells per sample. […] For each of the cannabinoid compounds, dose responses at the population level were performed. […] The lower limit of detectable calcium responses in this system varied from 10-100 nM (CBDV, CBGA) to 1-10 μM.

TRPV2 = biological target: T2, TRPV2 (Homo sapiens, UniProt Q9Y5S1); assay: Bulk calcium assay (Fluo-4) in HEK cells overexpressing TRPV2
T2 construct: host or cells: HEK TRex293
T2 sequence (Q9Y5S1 1-764): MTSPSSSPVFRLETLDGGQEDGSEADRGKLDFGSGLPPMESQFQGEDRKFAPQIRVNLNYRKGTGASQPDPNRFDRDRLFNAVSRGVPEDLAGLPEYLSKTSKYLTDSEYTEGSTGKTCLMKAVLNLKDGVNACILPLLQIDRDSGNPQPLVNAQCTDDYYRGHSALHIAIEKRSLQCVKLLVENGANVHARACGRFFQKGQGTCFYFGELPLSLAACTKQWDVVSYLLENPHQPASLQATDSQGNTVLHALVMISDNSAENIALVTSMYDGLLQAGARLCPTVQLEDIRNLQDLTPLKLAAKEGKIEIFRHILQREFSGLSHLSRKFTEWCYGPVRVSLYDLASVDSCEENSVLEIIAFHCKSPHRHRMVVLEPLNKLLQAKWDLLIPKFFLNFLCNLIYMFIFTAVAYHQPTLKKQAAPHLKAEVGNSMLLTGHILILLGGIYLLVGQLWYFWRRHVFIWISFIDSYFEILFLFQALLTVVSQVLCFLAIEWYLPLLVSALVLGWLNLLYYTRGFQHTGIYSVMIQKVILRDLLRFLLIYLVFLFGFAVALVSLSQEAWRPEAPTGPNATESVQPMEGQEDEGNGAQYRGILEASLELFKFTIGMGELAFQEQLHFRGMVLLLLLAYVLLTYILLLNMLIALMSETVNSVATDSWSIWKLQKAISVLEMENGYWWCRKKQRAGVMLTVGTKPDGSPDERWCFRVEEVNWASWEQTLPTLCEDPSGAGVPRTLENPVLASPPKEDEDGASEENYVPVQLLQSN
Method: (§3) HEK TRexTRPV1 were cultured in DMEM, 10% Fetal Bovine Serum, 2 mM Lglutamine, 10 μg/ml Blasticidin (Calbiochem, San Diego Calif.), 400 μg/ml Zeocin (InvivoGen, San Diego Calif.), where indicated transgene expression was induced using 1 μg/ml Tetracycline for 16-24 hrs. Unless otherwise indicated, basal expression of TRPV1 without induction was sufficient for these studies, and comparisons were made to untransfected HEK where needed. HEKTRex293 over-expressing human TRPV2, human TRPA1 and human TRPM8 were obtained from SB Drug Discovery (Glasgow, Scotland) and cultured as described above. The cannabinoids and terpenes were assayed in HEK cells that have been transfected with the TRPV1 ion channel protein. These cells are called HEK293-V1 cells.
as §1, §2
(§4) The potential for different cannabinoids to target specific TRP channels, or to co-target more than one channel type, are of potential therapeutic options for the treatment and management of pain. Comparison of the impacts of a variety of cannabinoid on overexpression systems for TRPV2, TRPM8, and TRPA1 were performed in a side-by-side fashion, under bulk calcium assays where the measurements with each trace representing averaged triplicates of 100,000 cells per sample. As shown in FIGS. 41-43 and summarized in Table 3, there are clear differences in responsiveness between cannabinoids at a single channel type than between channel types to a given cannabinoid.

TRPA1 = biological target: T3, TRPA1 (Homo sapiens, UniProt O75762); assay: Bulk calcium assay (Fluo-4) in HEK cells overexpressing TRPA1
T3 construct: host or cells: HEK TRex293
Method: as §3, §1, §2, §4

TRPM8 = biological target: T4, TRPM8 (Homo sapiens, UniProt Q7Z2W7); assay: Bulk calcium assay (Fluo-4) in HEK cells overexpressing TRPM8
T4 construct: host or cells: HEK TRex293
Method: as §3, §1, §2, §4

WT HEK293 = assay: Bulk calcium assay in untransfected WT HEK293; settings: 10 μM, 1 mM external Ca2+

T4 sequence (Q7Z2W7 whole entry): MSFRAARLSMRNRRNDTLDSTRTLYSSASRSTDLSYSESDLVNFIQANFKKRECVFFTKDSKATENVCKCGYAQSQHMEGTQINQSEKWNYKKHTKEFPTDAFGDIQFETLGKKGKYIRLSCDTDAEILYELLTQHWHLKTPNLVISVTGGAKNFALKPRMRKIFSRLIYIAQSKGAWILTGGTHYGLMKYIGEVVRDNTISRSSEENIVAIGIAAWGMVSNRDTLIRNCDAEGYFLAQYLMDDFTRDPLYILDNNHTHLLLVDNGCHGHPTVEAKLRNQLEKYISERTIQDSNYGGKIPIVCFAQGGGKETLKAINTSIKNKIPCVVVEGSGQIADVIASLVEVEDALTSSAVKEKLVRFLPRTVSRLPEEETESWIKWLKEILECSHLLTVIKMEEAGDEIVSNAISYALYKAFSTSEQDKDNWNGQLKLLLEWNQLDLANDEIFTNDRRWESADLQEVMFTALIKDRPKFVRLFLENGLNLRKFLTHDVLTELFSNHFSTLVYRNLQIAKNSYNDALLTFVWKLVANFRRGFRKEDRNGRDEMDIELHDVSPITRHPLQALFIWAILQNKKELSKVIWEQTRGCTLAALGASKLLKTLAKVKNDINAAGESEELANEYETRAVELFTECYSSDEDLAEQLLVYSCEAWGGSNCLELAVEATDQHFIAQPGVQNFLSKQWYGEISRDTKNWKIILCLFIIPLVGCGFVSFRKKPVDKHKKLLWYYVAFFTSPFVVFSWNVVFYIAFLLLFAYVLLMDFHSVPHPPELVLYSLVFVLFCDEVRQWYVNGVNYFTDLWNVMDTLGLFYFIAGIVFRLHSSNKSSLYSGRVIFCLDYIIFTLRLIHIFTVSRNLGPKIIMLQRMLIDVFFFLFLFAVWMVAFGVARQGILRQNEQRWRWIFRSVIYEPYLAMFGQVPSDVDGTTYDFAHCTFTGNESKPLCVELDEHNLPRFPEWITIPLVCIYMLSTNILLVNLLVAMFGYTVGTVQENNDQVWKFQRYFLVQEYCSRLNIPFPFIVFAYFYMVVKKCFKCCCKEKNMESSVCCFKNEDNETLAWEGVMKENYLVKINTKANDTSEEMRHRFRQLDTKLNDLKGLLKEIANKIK
T3 sequence (O75762 whole entry): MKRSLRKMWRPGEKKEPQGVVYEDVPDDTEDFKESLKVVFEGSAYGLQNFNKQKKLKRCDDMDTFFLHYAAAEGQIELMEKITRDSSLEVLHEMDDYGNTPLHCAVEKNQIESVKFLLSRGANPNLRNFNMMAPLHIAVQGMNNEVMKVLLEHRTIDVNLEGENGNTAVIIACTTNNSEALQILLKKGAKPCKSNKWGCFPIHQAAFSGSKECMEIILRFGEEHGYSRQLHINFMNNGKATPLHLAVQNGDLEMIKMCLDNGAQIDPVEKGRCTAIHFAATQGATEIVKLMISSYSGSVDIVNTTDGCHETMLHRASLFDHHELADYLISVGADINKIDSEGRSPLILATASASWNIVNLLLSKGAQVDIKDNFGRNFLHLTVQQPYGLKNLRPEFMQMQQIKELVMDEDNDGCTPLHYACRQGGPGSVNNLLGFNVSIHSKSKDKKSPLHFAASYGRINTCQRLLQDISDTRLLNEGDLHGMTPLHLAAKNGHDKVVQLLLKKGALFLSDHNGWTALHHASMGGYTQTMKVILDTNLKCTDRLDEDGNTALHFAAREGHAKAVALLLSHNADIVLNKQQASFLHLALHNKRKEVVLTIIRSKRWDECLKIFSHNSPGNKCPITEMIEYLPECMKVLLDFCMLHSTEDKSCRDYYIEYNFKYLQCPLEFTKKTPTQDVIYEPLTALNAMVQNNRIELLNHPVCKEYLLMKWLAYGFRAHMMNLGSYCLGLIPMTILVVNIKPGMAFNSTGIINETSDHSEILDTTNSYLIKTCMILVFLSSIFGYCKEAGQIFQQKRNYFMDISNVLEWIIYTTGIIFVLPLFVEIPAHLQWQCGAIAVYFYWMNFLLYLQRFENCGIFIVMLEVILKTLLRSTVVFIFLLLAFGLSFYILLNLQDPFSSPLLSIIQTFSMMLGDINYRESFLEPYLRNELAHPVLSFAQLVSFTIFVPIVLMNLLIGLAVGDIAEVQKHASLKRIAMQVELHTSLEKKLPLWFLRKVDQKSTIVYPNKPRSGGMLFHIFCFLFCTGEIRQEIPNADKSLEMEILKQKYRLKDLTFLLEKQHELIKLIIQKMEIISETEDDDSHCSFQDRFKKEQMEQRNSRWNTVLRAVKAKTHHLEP
T1 sequence (O35433 whole entry): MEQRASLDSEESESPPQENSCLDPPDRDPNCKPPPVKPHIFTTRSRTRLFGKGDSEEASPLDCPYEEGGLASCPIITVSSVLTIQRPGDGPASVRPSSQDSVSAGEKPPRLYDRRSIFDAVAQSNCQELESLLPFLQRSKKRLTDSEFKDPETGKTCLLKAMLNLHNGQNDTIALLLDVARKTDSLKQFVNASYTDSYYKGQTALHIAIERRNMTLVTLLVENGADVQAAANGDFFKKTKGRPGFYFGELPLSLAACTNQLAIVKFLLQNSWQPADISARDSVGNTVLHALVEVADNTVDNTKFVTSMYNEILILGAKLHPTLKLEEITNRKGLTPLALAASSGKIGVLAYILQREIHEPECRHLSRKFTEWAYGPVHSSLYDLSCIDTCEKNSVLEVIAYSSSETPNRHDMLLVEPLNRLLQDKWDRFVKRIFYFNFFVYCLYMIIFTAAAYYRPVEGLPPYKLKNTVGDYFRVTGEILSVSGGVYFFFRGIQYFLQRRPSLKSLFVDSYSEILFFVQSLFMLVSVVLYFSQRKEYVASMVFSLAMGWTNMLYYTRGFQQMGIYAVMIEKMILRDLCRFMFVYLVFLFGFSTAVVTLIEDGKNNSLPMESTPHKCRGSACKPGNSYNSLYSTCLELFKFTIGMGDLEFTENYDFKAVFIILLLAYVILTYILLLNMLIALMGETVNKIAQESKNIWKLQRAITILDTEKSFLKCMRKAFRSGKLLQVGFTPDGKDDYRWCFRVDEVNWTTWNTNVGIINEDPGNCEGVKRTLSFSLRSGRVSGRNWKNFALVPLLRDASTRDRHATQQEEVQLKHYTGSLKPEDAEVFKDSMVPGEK

Row | Compound | mean maximal Ca^2+ signal RFU achieved 0-180 s (SD), TRPV1 (TRPV1) | mean maximal Ca^2+ signal RFU achieved 0-180 s (SD), TRPV1 (TRPV2) | mean maximal Ca^2+ signal RFU achieved 0-180 s (SD), TRPA1 (TRPA1) | mean maximal Ca^2+ signal RFU achieved 0-180 s (SD), TRM8 (TRPM8) | calcium response of WT HEK293 (WT HEK293)
1 | CCCCCc1cc(O)c2c(c1)OC(C)(CCC=C(C)C)C=C2 (stereo not shown) [CBC, Cannabichromene] | 3.23 (0.12) RFU | 21.66 (1.89) RFU | 15.13 (3.35) RFU | 0.97 (0.03) RFU | –
2 | C=C(C)[C@@H]1CCC(C)=C[C@H]1c1c(O)cc(CCCCC)c(C(=O)O)c1O [CBDA, Cannabidiolic Acid] | 4.62 (0.66) RFU | 3.69 (1.2) RFU | 10.09 (3.08) RFU | 1.92 (0.04) RFU | –
3 | CCCCCc1cc(O)c(C/C=C(\C)CCC=C(C)C)c(O)c1C(=O)O [CBGA, Cannabigerolic Acid] | 13.77 (0.31) RFU | 0.78 (0.02) RFU | 3.65 (1.11) RFU | 0.3 (0.01) RFU | responding slightly
